{"source": "PubChem BioAssay AID1259408", "about": "(Genetic Toxicology Data Bank (GENE-TOX), 2018)", "system": "GENE-TOX genotoxicity assays, various organisms and cells", "experiment": "GENE-TOX mutagenicity studies", "settings": "for call: Assay Type: In vivo carcinogenicity studies", "key": {"[1]": {"settings": "Species/Cell Type: Salmonella typhimurium (one or more of the five standard strains: TA98, TA100, TA1535, TA1537, and TA1538), Assay Type: Histidine reverse gene mutation, Ames assay, Assay Code: SALT, Evaluation Type: Evaluation A (Pre-1980)"}, "[2]": {"settings": "Species/Cell Type: Nonhuman, Assay Code: CCG+, Evaluation Type: Evaluation A (Pre-1980)"}, "[3]": {"settings": "Species/Cell Type: Human, Assay Type: Sister-chromatid exchange (SCE) in vitro, Assay Code: SC1+D, Dose Response: With dose response, Evaluation Type: Evaluation B (Post-1980)"}}, "note": "Activity calls are given as the source filed them. The rule behind the calls is not given here."}
{"compound": "COc1cc2cc3c4cc(OC)c(OC)cc4cc[n+]3c(C)c2cc1OC", "note": "(tested in a mixture with another compound)", "values": [{"measurement": "mutagenic call", "setting": "[1]", "value": "no conclusion"}]}
{"compound": "O=Nc1ccc(Nc2ccccc2)cc1", "values": [{"measurement": "call", "setting": "[2]", "value": "active; positive"}]}
{"compound": "CN(C)N=Nc1ccc(O)cc1", "values": [{"measurement": "mutagenic call", "setting": "Species/Cell Type: Drosophila melanogaster, Assay Type: Sex-linked recessive lethal gene mutation, Assay Code: SRLT, Evaluation Type: Evaluation A (Pre-1980)", "value": "no conclusion"}, {"measurement": "mutagenic call", "setting": "Species/Cell Type: Saccharomyces cerevisiae, Assay Type: Mitotic recombination or gene conversion, Assay Code: YEC+/-*, Activation: With metabolic activation, Evaluation Type: Evaluation A (Pre-1980)", "value": "inactive; positive without activation, negative with activation"}]}
{"compound": "CC(C)CCC[C@@H](C)[C@H]1CC[C@H]2[C@@H]3CC=C4C[C@@H](OC(=O)Cc5ccc(N(CCCl)CCCl)cc5)CC[C@]4(C)[C@H]3CC[C@]12C", "values": [{"measurement": "call", "setting": "[2]", "value": "active; positive"}]}
{"compound": "CC1=NN(c2ccccc2)C(=O)C1", "values": [{"measurement": "call", "setting": "Species/Cell Type: Nonhuman, Assay Code: CCG-L, Evaluation Type: Evaluation A (Pre-1980)", "value": "inactive; negative"}]}
{"compound": "ClCCl", "values": [{"measurement": "mutagenic call", "setting": "Species/Cell Type: Drosophila melanogaster, Assay Type: Sex-linked recessive lethal gene mutation, Assay Code: SRL-, Evaluation Type: Evaluation A (Pre-1980)", "value": "inactive; negative"}, {"measurement": "mutagenic call", "setting": "Species/Cell Type: Fischer rat embryo (RLV/1706) cells, Assay Type: Cell transformation, viral enhanced, Assay Code: CTR+, Evaluation Type: Evaluation A (Pre-1980)", "value": "active; positive"}, {"measurement": "mutagenic call", "setting": "Species/Cell Type: Mammalian polychromatic erythrocytes, Assay Type: Micronucleus test, chromosome aberrations, Assay Code: MNT-, Evaluation Type: Evaluation B (Post-1980)", "value": "inactive; negative"}, {"measurement": "mutagenic call", "setting": "Species/Cell Type: Nonhuman, Assay Type: Sister-chromatid exchange (SCE) in vitro, Assay Code: SC2+D, Dose Response: With dose response, Evaluation Type: Evaluation B (Post-1980)", "value": "active; positive"}, {"measurement": "mutagenic call", "setting": "Species/Cell Type: Saccharomyces cerevisiae, Assay Type: Mitotic recombination or gene conversion, Assay Code: YEC+, Evaluation Type: Evaluation A (Pre-1980)", "value": "active; positive"}, {"measurement": "mutagenic call", "setting": "Species/Cell Type: Saccharomyces cerevisiae, Assay Type: Mitotic recombination or gene conversion, Assay Code: YEH+, Evaluation Type: Evaluation A (Pre-1980)", "value": "active; positive"}, {"measurement": "mutagenic call", "setting": "Species/Cell Type: Saccharomyces cerevisiae, Assay Type: Reverse gene mutation, Assay Code: YER+, Evaluation Type: Evaluation A (Pre-1980)", "value": "active; positive"}, {"measurement": "mutagenic call", "setting": "Species/Cell Type: Salmonella typhimurium (one or more of the five standard strains: TA98, TA100, TA1535, TA1537, and TA1538), Assay Type: Histidine reverse gene mutation, Ames assay, Assay Code: SAL+, Evaluation Type: Evaluation A (Pre-1980)", "value": "active; positive"}]}
{"compound": "Nc1ccc2c(n1)[nH]c1ccccc12", "values": [{"measurement": "mutagenic call", "setting": "Species/Cell Type: Human, Assay Type: Sister-chromatid exchange (SCE) in vitro, Assay Code: SC1+D*, Activation: With metabolic activation, Dose Response: With dose response, Evaluation Type: Evaluation B (Post-1980)", "value": "active; positive"}]}
{"compound": "C[C@H]1CCCCN1N=O", "values": [{"measurement": "call", "setting": "[2]", "value": "active; positive"}]}
{"compound": "O=S(=O)(O)c1ccc(N=C2C=CC(=C(c3ccc(Nc4ccc(S(=O)(=O)O)cc4)cc3)c3ccc(Nc4ccc(S(=O)(=O)O)cc4)cc3)C=C2)cc1", "values": [{"measurement": "mutagenic call", "setting": "Species/Cell Type: Bacillus subtilis (H17 vs M45), Assay Type: Rec-assay, spot test, DNA effects (bacterial DNA repair), Assay Code: REWT, Evaluation Type: Evaluation A (Pre-1980)", "value": "no conclusion"}]}
{"compound": "C/C=C(\\C(=C/C)c1ccc(O)cc1)c1ccc(O)cc1", "values": [{"measurement": "mutagenic call", "setting": "[3]", "value": "active; positive"}]}
{"compound": "Cc1c2c(cc3ccccc13)-c1ccccc1C(O)C2O", "note": "(centres undefined)", "values": [{"measurement": "mutagenic call", "setting": "Species/Cell Type: Chinese hamster lung (V79) cells, Assay Type: Forward gene mutation at the HPRT or ouabain locus, Assay Code: V79-*, Activation: With metabolic activation, Evaluation Type: Evaluation A (Pre-1980)", "value": "inactive; negative"}, {"measurement": "call", "setting": "Species/Cell Type: Nonhuman, Assay Code: CCGT, Evaluation Type: Evaluation A (Pre-1980)", "value": "no conclusion"}, {"measurement": "mutagenic call", "setting": "Species/Cell Type: Nonhuman, Assay Type: Sister-chromatid exchange (SCE) in vitro, Assay Code: SC2T, Evaluation Type: Evaluation A (Pre-1980)", "value": "no conclusion"}, {"measurement": "mutagenic call", "setting": "[1]", "value": "no conclusion"}]}
{"compound": "Cc1ccc2c(C)c3ccc4ccccc4c3nc2c1", "values": [{"measurement": "mutagenic call", "setting": "Species/Cell Type: Salmonella typhimurium (one or more of the five standard strains: TA98, TA100, TA1535, TA1537, and TA1538), Assay Type: Histidine reverse gene mutation, Ames assay, Assay Code: SAL+*, Activation: With metabolic activation, Evaluation Type: Evaluation A (Pre-1980)", "value": "active; positive"}]}
{"compound": "CNC(=O)c1c(I)c(NC(C)=O)c(I)c(C(=O)O)c1I", "values": [{"measurement": "mutagenic call", "setting": "Species/Cell Type: Human lymphocytes, Assay Type: Sister-chromatid exchange (SCE) in vitro, Assay Code: SCL+D, Dose Response: With dose response, Evaluation Type: Evaluation B (Post-1980)", "value": "active; positive"}, {"measurement": "mutagenic call", "setting": "[3]", "value": "active; positive"}]}
{"compound": "Cc1cccc(N(C)C(=S)Oc2ccc3ccccc3c2)c1", "values": [{"measurement": "mutagenic call", "setting": "Species/Cell Type: Neurospora crassa, Assay Type: Aneuploidy, chromosome aberrations, Assay Code: NEN-, Evaluation Type: Evaluation A (Pre-1980)", "value": "inactive; negative"}]}
{"compound": "CO[C@@H]1[C@H](C)O[C@@H](O[C@@H]2C[C@H](Oc3cc(O)c4c(O)c5c(cc4c3)C[C@@H]([C@H](OC)C(=O)[C@@H](O)[C@@H](C)O)[C@H](O[C@@H]3C[C@H](OC4C[C@H](O)[C@@H](O)[C@H](C)O4)[C@@H](O)[C@H](C)O3)C5=O)O[C@H](C)[C@@H]2O)C[C@@H]1O", "note": "(some centres undefined)", "values": [{"measurement": "mutagenic call", "setting": "Species/Cell Type: Chinese hamster ovary (CHO) cells, Assay Type: Forward gene mutation at the HPRT locus, Assay Code: CHO+, Evaluation Type: Evaluation B (Post-1980)", "value": "active; positive"}]}
{"compound": "COc1ccc2c3c4n(c2c1)[C@@H](C=C(C)C)OOC(C)(C)C[C@@H]4N1C(=O)[C@@H]2CCCN2C(=O)[C@]1(O)[C@H]3O", "values": [{"measurement": "mutagenic call", "setting": "Species/Cell Type: Saccharomyces cerevisiae, Assay Type: Mitotic recombination or gene conversion, Assay Code: YEH-, Evaluation Type: Evaluation A (Pre-1980)", "value": "inactive; negative"}, {"measurement": "mutagenic call", "setting": "[1]", "value": "no conclusion"}]}
